The text below walks through data of patent US7741350B1 (Cara Therapeutics, Inc., priority 2009, dated 2010).

Experiment [1] concerns the target human CB1 receptor (hCB1) (Homo sapiens, UniProt P21554). Briefly: cAMP assay at human CB1 receptor. It counts as cell-based. As to conditions: hCB1R; maximum measurable range 30 μM; read-out: EC50 (Potency at Human CB1 determined by cAMP Assay). The method, boiled down:
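Changes in intracellular cAMP measured by TR-FRET (665/615 nm) in forskolin-stimulated cells; cAMP read from a concurrent standard curve. Values normalised between forskolin and forskolin plus 1 μM CP55,940 wells. EC50 and intrinsic activity relative to CP55,940 from four-parameter nonlinear regression.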

For experiment [2], the target named is human CB2 receptor (hCB2) (Homo sapiens, UniProt P34972). Briefly: cAMP assay at human CB2 receptor. The experiment is classed as cell-based. To be noted: EC50 (Potency at Human CB2 determined by cAMP Assay), hCB2R; maximum measurable range 30 μM. Put shortly:
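Values expressed as percent of the window between forskolin-stimulated wells and forskolin plus 1 μM CP55,940 wells.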

For the next experiment, the system named is Male ICR mice. Briefly: Inhibition of acetic acid-induced writhing in mice. As to conditions: dose of 10 mg/kg, subcutaneous 30 min before acetic acid. The experiment is classed as in vivo, mouse. The text has this:
12: 525-562; Ramabadran and Bansinath (1986) Pharm. Res. 3: 263-270]. Intraperitoneal administration of dilute acetic acid solution causes a writhing behavior in mice. A writhe is defined as a contraction of the abdominal muscles accompanied by an extension of the forelimbs and elongation of the body. The number of writhes observed in the presence and absence of test compounds is counted to determine the analgesic activity of the compounds.
Male ICR mice, 20-40 grams in weight, were weighed and placed in individual observation chambers (usually a 4 L beaker) with a fine layer of rodent bedding at the bottom. To determine the activity and potency of test compounds, different doses of the compound solution or vehicle were injected subcutaneously in the back of the neck 30 minutes prior to administration of acetic acid solution. After administration of the compound or vehicle control, mice were returned to their individual observation chambers awaiting the intraperitoneal administration of acetic acid solution.
Thirty minutes later, 10 ml/kg of a 0.6% (v/v) acetic acid solution was then injected into the right lower quadrant of the abdomen. Immediately after the injection, the mouse was returned to its observation chamber and the recording of the number of writhes is begun immediately. The number of writhes was counted over a 15-min period starting from the time of acetic acid injection. Raw data were analyzed using a one-way ANOVA followed by Dunnett's post-tests.
For dose-response analysis, raw data were converted to % maximum possible effect (% MPE) using the formula: % MPE=((Wc−Wv)/(0−Wv))*100, where Wc is the number of writhes in compound-treated mice and Wv is the mean number of writhes in vehicle-treated mice. The dose which elicited 50% attenuation of hypersensitivity (ED50) can be determined using linear regression analysis. (Tallarida & Murray, 1987).

The subject of another experiment is male Sprague-Dawley rats. Briefly: Anti-hyperalgesia in the Complete Freund's Adjuvant (CFA) model of inflammatory pain. As to conditions: PO dose 3 mg/kg; 1 hr after dosing; thermal hyperalgesia; rat; read-out: % MPE (1 hr), paw withdrawal latency after CFA injection. It counts as in vivo. The procedure:
The anti-hyperalgesic effects of test compounds in the Complete Freund's Adjuvant (CFA) model of inflammatory pain were determined essentially as described in U.S. Pat. No. 7,517,874 using male Sprague-Dawley rats (Hsd: Sprague-Dawley®SD®, Harlan, Indianapolis, Ind.) weighing 200-300 grams.
Test compounds were prepared in a Cremaphor vehicle mixture of 1:1:18 CremophorEL:ethanol:water. Cremophor was obtained from Sigma Chemical (St. Louis, Mo.). The vehicle mixture or vehicle mixture plus test compound were each administered orally.
Assessment of thermal hyperalgesia: Baseline and post-treatment paw withdrawal latencies to a noxious thermal stimulus were measured using a plantar test apparatus (Ugo Basile; obtained from Stoelting, Wood Dale, Ill.). This apparatus generates an infrared heat source that is linearly increasing in intensity. To avoid tissue damage, the power to the heat source was cut off after 20 seconds.
Paw withdrawal latency is defined as the time required for the rat to flick its paw away from the thermal stimulus. Ibuprofen (100 mg/kg, p.o.) was used as the positive control. Paw withdrawal latencies (in seconds) were measured before (naïve paw latency, L1) and 24 hr following (CFA-inflamed paw latency, L2) a single intraplantar injection of 0.1 mL CFA (Sigma-Aldrich, cat F5881, Mycobacterium tuberculosis 1 mg/ml).
Test compounds were administered orally 23 hours following CFA injection; i.e., 1 hour prior to thermal assessment (compound treated CFA-inflamed paw latency, L3). The mean paw withdrawal latency and standard error of the mean (SEM) was determined for the injured paws for each treatment group.
Data were expressed as percent maximum […] effect (% MPE) defined as the percentage of restoration of latency of test compound-treated CFA inflamed paw as compared to the naïve paw latency.

For the next experiment, the system named is Rat L5/L6 SNL model. Briefly: Spinal nerve ligation (SNL) model of chronic neuropathic pain. The experiment is classed as in vivo. As to conditions: two-way repeated measurement ANOVA, Bonferroni post-tests. The procedure:
The SNL model (Kim and Chung, 1992, Pain 50 (3):355-63) was used to induce chronic neuropathic pain in rats. Rats were anesthetized with isoflurane, the left L5 transverse process was removed, and the L5 and L6 spinal nerves were tightly ligated with 6-0 silk suture. The wound was then closed with internal sutures and external staples. Following at least seven days post SNL, baseline, post-injury and post-treatment values for non-noxious mechanical sensitivity were evaluated using eight Semmes-Weinstein filaments (Stoelting, Wood Dale, Ill., USA) with varying stiffness (0.4, 0.7, 1.2, 2.0, 3.6, 5.5, 8.5, and 15 g) according to the up-down method (Chaplan et al., 1994, J. Neurosci. Meth., 53 (1):55-63). Animals were placed on a perforated metallic platform and allowed to acclimate to their surroundings for a minimum of thirty minutes before testing.
Rat L5/L6 SNL model (n=6/group; mean±sem). Sensitivity to non-noxious mechanical stimuli was tested before and at various time points following oral administration of compound (36). The mean and standard error of the mean (SEM) were determined for the injured paw in each treatment group. Since this stimulus is normally not considered painful, significant injury-induced increases in responsiveness in this test are interpreted as a measure of mechanical allodynia.

Chain of human CB1 receptor (hCB1) (P21554 whole entry): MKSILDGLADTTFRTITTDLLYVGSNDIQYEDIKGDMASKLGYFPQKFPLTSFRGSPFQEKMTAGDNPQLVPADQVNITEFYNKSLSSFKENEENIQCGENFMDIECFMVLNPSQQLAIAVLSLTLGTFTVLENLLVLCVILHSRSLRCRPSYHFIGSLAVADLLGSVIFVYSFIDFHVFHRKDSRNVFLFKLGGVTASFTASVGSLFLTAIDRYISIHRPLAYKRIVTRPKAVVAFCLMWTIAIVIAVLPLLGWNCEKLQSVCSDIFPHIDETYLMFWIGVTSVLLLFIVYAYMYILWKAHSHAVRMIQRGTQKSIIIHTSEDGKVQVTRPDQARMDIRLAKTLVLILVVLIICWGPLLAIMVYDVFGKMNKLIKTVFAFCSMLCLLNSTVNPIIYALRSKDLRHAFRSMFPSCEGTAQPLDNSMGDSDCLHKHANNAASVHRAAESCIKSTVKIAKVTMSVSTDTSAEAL
Chain of human CB2 receptor (hCB2) (P34972 whole entry): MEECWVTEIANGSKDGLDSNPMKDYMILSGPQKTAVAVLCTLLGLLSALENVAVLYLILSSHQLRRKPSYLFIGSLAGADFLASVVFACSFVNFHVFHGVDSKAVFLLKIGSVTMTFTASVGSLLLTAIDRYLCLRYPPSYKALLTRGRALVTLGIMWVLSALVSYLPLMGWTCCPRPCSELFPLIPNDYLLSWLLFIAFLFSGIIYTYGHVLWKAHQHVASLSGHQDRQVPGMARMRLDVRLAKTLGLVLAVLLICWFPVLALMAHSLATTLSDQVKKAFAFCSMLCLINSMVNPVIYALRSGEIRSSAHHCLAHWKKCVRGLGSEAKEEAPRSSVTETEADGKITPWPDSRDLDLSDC

For the compound `CNC(=O)[C@@H](NC(=O)n1nc(-c2ccc(F)c(F)c2)c2c1CCOC2)C(C)(C)C` [Compound 28, (S)-3-(3,4-difluorophenyl)-N-(3,3-dimethyl-1-(methyl-amino)-1-oxobutan-2-yl)-6,7-dihydropyrano[4,3-c]pyrazole-1(4H)-carboxamide], the EC50 in experiment [1] and in experiment [2] was less than 1 µM throughout. Also, the “reversal of the mechanical hyperalgesia induced by the acetic acid treatment” value (from here on “reversal”) in the experiment with Male ICR mice worked out at 100%.

`CC(C)(C)[C@H](NC(=O)n1nc(-c2cc(F)c(F)cc2F)c2c1CCOC2)C(=O)NCCO` [Compound 35, (S)—N-(1-(2-hydroxyethylamino)-3,3-dimethyl-1-oxobutan-2-yl)-3-(2,4,5-trifluorophenyl)-6,7-dihydropyrano[4,3-c]pyrazole-1(4H)-carboxamide]: the half-maximal effective concentration (EC50) in experiment [1] and in experiment [2] was less than 1 µM throughout. Besides, the “reversal” value in the experiment on Male ICR mice was found to be 100%.

As for `CC(C)(C)[C@H](NC(=O)n1nc(-c2ccc(F)c(F)c2)c2c1CCOC2)C(=O)NCCO` [Compound 36, (S)—N-(1-(2-hydroxyethylamino)-3,3-dimethyl-1-oxobutan-2-yl)-3-(3,4-difluorophenyl)-6,7-dihydropyrano[4,3-c]pyrazole-1(4H)-carboxamide], the EC50 in experiment [1] and in experiment [2] was less than 1 µM throughout. In the experiment on male Sprague-Dawley rats, the inhibition in vivo at 3 mg/kg was found to be 44%. The “Sensitivity to non-noxious mechanical stimuli, significance vs. vehicle-controls” value in the experiment on Rat L5/L6 SNL model (3 mg/kg oral) is listed as “significant to p<0.05 vs. vehicle-controls”; in the experiment with Rat L5/L6 SNL model (10 mg/kg oral) it was “significant to p<0.001 vs. vehicle-controls”; in the experiment with Rat L5/L6 SNL model (30 mg/kg oral), “significant to p<0.001 vs. vehicle-controls”.

Take `CNC(=O)[C@@H](NC(=O)n1nc(-c2cc(F)c(F)cc2F)c2c1CCN(C)C2)C(C)(C)C` [Compound 37, (S)—N-(3,3-dimethyl-1-(methylamino)-1-oxobutan-2-yl)-5-methyl-3-(2,4,5-trifluorophenyl)-4,5,6,7-tetrahydro-1H-pyrazolo[4,3-c]pyridine-1-carboxamide]: the half-maximal effective concentration (EC50) in experiment [1] and in experiment [2] was less than 1 µM each time. In addition, in the experiment with Male ICR mice, the “reversal” value came to 100%.
